According to patent publication US20250145665A1, “MACROCYCLIC PEPTIDES USEFUL AS MODULATORS OF TNF ALPHA” (Bristol-Myers Squibb Company, priority 2023, published 2025):
Starred links: 1 amine or outer side, 2 acyl side, 3 side chain; linkers in the order of their positions; H or OH if unused. Positions of bridges follow the written chain, without caps; N, C: chain ends. Non-standard residues stand in square brackets, D forms with d. Residues, ends and D or L forms follow the SMILES beside them. Ala(morpholin-4-yl) = N[C@@H](CN1CCOCC1)C(=O)O; X59 = O=C([C@H](Cc1c(F)cc(F)cc1F)N[*:1])[*:2]; Phe(4-CH2NH2) = NCc1ccc(C[C@H](N)C(=O)O)cc1; Bip = N[C@@H](Cc1ccc(-c2ccccc2)cc1)C(=O)O; Phe(4-F) = N[C@@H](Cc1ccc(F)cc1)C(=O)O; Val(3-OH) = CC(C)(O)[C@H](N)C(=O)O; h4Pal = N[C@@H](CCc1ccncc1)C(=O)O; 2Pal = N[C@@H](Cc1ccccn1)C(=O)O; 3Pal = N[C@@H](Cc1cccnc1)C(=O)O; 4Pal = N[C@@H](Cc1ccncc1)C(=O)O; hLeu = CC(C)CC[C@H](N)C(=O)O; Hpra = C#CCC[C@H](N)C(=O)O; Sar = CNCC(=O)O

Target: TNFα (Homo sapiens, UniProt P01375)
Sequence (P01375 77-233 limits assumed): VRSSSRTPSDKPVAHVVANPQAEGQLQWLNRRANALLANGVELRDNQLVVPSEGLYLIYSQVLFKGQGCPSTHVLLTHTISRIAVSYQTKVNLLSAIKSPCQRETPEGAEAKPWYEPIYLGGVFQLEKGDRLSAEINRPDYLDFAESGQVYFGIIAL
Test: TNF-Induced HEK-Blue Assay
Format: cell-based
Settings: HEK-Blue-CD40L cells, NF-kB-driven secreted alkaline phosphatase reporter; TNFα 0.5 ng/ml; 18 h; read-out: TNF induced HEK-Blue assay IC50 value

Structure (SMILES) | IC50 [nM]
CC(C)C[C@@H]1NC(=O)[C@H](CCCNC(=N)N)NC(=O)[C@H](CC(C)C)NC(=O)[C@@H]2CCCN2C(=O)[C@H](C(C)C)NC(=O)[C@H](CCCNC(=N)N)NC(=O)[C@H](CC(=O)O)NC(=O)[C@@H]2CCCN2C(=O)CN(C)C(=O)[C@H](Cc2ccc(-c3ccccc3)cc2)NC(=O)[C@H](Cc2ccc(-c3ccccc3)cc2)NC(=O)[C@H](Cc2ccccc2)NC(=O)CSC[C@@H](C(=O)NCC(N)=O)NC1=O [Example 21] ({CH2CO}-F[Bip][Bip][Sar]PDRVPLRLCG-NH2; thioether N-13) | 200 to 2000
CC(C)C[C@@H]1NC(=O)[C@H](CCCNC(=N)N)NC(=O)[C@H](C(C)C)NC(=O)[C@@H]2CCCN2C(=O)[C@H](Cc2ccc(CN)cc2)NC(=O)[C@H](CCCNC(=N)N)NC(=O)[C@H](CC(=O)O)NC(=O)[C@@H]2CCCN2C(=O)CN(C)C(=O)[C@H](Cc2ccc(-c3ccccc3)cc2)NC(=O)[C@H](Cc2ccc(-c3ccccc3)cc2)NC(=O)[C@H](Cc2ccccc2)NC(=O)CSC[C@@H](C(=O)NCC(N)=O)NC1=O [Example 22] ({CH2CO}-F[Bip][Bip][Sar]PDR[Phe(4-CH2NH2)]PVRLCG-NH2; thioether N-13) | 200 to 2000
CC(C)C[C@@H]1NC(=O)[C@H](CCCNC(=N)N)NC(=O)[C@H](C(C)C)NC(=O)[C@@H]2CCCN2C(=O)[C@H](Cc2ccc(F)cc2)NC(=O)[C@H](CCCNC(=N)N)NC(=O)[C@H](CC(=O)O)NC(=O)[C@@H]2CCCN2C(=O)CN(C)C(=O)[C@H](Cc2ccc(-c3ccccc3)cc2)NC(=O)[C@H](Cc2ccc(-c3ccccc3)cc2)NC(=O)[C@H](Cc2ccccc2)NC(=O)CSC[C@@H](C(=O)NCC(N)=O)NC1=O [Example 23] ({CH2CO}-F[Bip][Bip][Sar]PDR[Phe(4-F)]PVRLCG-NH2; thioether N-13) | 200 to 2000
CC(C)C[C@@H]1NC(=O)[C@H](CCCNC(=N)N)NC(=O)[C@H](C(C)C)NC(=O)[C@@H]2CCCN2C(=O)[C@H](CCc2ccncc2)NC(=O)[C@H](CCCNC(=N)N)NC(=O)[C@H](CC(=O)O)NC(=O)[C@@H]2CCCN2C(=O)CN(C)C(=O)[C@H](Cc2ccc(-c3ccccc3)cc2)NC(=O)[C@H](Cc2ccc(-c3ccccc3)cc2)NC(=O)[C@H](Cc2ccccc2)NC(=O)CSC[C@@H](C(=O)NCC(N)=O)NC1=O [Example 24] ({CH2CO}-F[Bip][Bip][Sar]PDR[h4Pal]PVRLCG-NH2; thioether N-13) | 200 to 2000
CC(C)C[C@@H]1NC(=O)[C@H](CCCNC(=N)N)NC(=O)[C@H](C(C)C)NC(=O)[C@@H]2CCCN2C(=O)[C@H](Cc2ccncc2)NC(=O)[C@H](CCCNC(=N)N)NC(=O)[C@H](CC(=O)O)NC(=O)[C@@H]2CCCN2C(=O)CN(C)C(=O)[C@H](Cc2ccc(-c3ccccc3)cc2)NC(=O)[C@H](Cc2ccc(-c3ccccc3)cc2)NC(=O)[C@H](Cc2ccccc2)NC(=O)CSC[C@@H](C(=O)NCC(N)=O)NC1=O [Example 25] ({CH2CO}-F[Bip][Bip][Sar]PDR[4Pal]PVRLCG-NH2; thioether N-13) | 200 to 2000
CC(C)C[C@@H]1NC(=O)[C@H](CCCNC(=N)N)NC(=O)[C@H](C(C)C)NC(=O)[C@@H]2CCCN2C(=O)[C@H](Cc2cccnc2)NC(=O)[C@H](CCCNC(=N)N)NC(=O)[C@H](CC(=O)O)NC(=O)[C@@H]2CCCN2C(=O)CN(C)C(=O)[C@H](Cc2ccc(-c3ccccc3)cc2)NC(=O)[C@H](Cc2ccc(-c3ccccc3)cc2)NC(=O)[C@H](Cc2ccccc2)NC(=O)CSC[C@@H](C(=O)NCC(N)=O)NC1=O [Example 26] ({CH2CO}-F[Bip][Bip][Sar]PDR[3Pal]PVRLCG-NH2; thioether N-13) | 200 to 2000
CC(C)C[C@@H]1NC(=O)[C@H](CCCNC(=N)N)NC(=O)[C@H](C(C)C)NC(=O)[C@@H]2CCCN2C(=O)[C@H](C(C)C)NC(=O)[C@H](CCCNC(=N)N)NC(=O)[C@H](CC(=O)O)NC(=O)[C@@H]2CCCN2C(=O)CN(C)C(=O)[C@H](Cc2ccc(-c3ccccc3)cc2)NC(=O)[C@H](Cc2ccc(-c3ccccc3)cc2)NC(=O)[C@H](C(C)(C)O)NC(=O)CSC[C@@H](C(=O)NCC(N)=O)NC1=O [Example 27] ({CH2CO}-[Val(3-OH)][Bip][Bip][Sar]PDRVPVRLCG-NH2; thioether N-13) | 50 to 200

Other lines, results leading:

IC50 [nM] | Structure (SMILES)
200 to 2000 | CC(C)CC[C@@H]1NC(=O)CSC[C@@H](C(=O)NCC(N)=O)NC(=O)[C@H](CC(C)C)NC(=O)[C@H](CCCNC(=N)N)NC(=O)[C@H](C(C)C)NC(=O)[C@@H]2CCCN2C(=O)[C@H](C(C)C)NC(=O)[C@H](CCCNC(=N)N)NC(=O)[C@H](CC(=O)O)NC(=O)[C@@H]2CCCN2C(=O)CN(C)C(=O)[C@H](Cc2ccc(-c3ccccc3)cc2)NC(=O)[C@H](Cc2ccc(-c3ccccc3)cc2)NC1=O [Example 28] ({CH2CO}-[hLeu][Bip][Bip][Sar]PDRVPVRLCG-NH2; thioether N-13)
200 to 2000 | CC(C)C[C@@H]1NC(=O)[C@H](CCCNC(=N)N)NC(=O)[C@H](C(C)C)NC(=O)[C@@H]2CCCN2C(=O)[C@H](C(C)C)NC(=O)[C@H](CCCNC(=N)N)NC(=O)[C@H](CC(=O)O)NC(=O)[C@@H]2CCCN2C(=O)CN(C)C(=O)[C@H](Cc2ccc(-c3ccccc3)cc2)NC(=O)[C@H](Cc2ccc(-c3ccccc3)cc2)NC(=O)[C@H](Cc2cccnc2)NC(=O)CSC[C@@H](C(=O)NCC(N)=O)NC1=O [Example 29] ({CH2CO}-[3Pal][Bip][Bip][Sar]PDRVPVRLCG-NH2; thioether N-13)
200 to 2000 | CC(C)C[C@@H]1NC(=O)[C@H](CCCNC(=N)N)NC(=O)[C@H](C(C)C)NC(=O)[C@@H]2CCCN2C(=O)[C@H](C(C)C)NC(=O)[C@H](CCCNC(=N)N)NC(=O)[C@H](CC(=O)O)NC(=O)[C@@H]2CCCN2C(=O)CN(C)C(=O)[C@H](Cc2ccc(-c3ccccc3)cc2)NC(=O)[C@H](Cc2ccc(-c3ccccc3)cc2)NC(=O)[C@H](Cc2ccccn2)NC(=O)CSC[C@@H](C(=O)NCC(N)=O)NC1=O [Example 30] ({CH2CO}-[2Pal][Bip][Bip][Sar]PDRVPVRLCG-NH2; thioether N-13)
200 to 2000 | CC(C)C[C@@H]1NC(=O)[C@H](CCCNC(=N)N)NC(=O)[C@H](C(C)C)NC(=O)[C@@H]2CCCN2C(=O)[C@H](C(C)C)NC(=O)[C@H](CCCNC(=N)N)NC(=O)[C@H](CC(=O)O)NC(=O)[C@@H]2CCCN2C(=O)CN(C)C(=O)[C@H](Cc2ccc(-c3ccccc3)cc2)NC(=O)[C@H](Cc2ccc(-c3ccccc3)cc2)NC(=O)[C@H](Cc2c(F)cc(F)cc2F)NC(=O)CSC[C@@H](C(=O)NCC(N)=O)NC1=O [Example 31] ({CH2CO}-[X59][Bip][Bip][Sar]PDRVPVRLCG-NH2; thioether N-13)
50 to 200 | CC(C)C[C@@H]1NC(=O)[C@H](CCCNC(=N)N)NC(=O)[C@H](C(C)C)NC(=O)[C@@H]2CCCN2C(=O)[C@H](C(C)C)NC(=O)[C@H](CCCNC(=N)N)NC(=O)[C@H](CC(=O)O)NC(=O)[C@@H]2CCCN2C(=O)CN(C)C(=O)[C@H](Cc2ccc(-c3ccccc3)cc2)NC(=O)[C@H](Cc2ccc(-c3ccccc3)cc2)NC(=O)[C@H](CN2CCOCC2)NC(=O)CSC[C@@H](C(=O)NCC(N)=O)NC1=O [Example 32] ({CH2CO}-[Ala(morpholin-4-yl)][Bip][Bip][Sar]PDRVPVRLCG-NH2; thioether N-13)
200 to 2000 | C#CCC[C@@H]1NC(=O)[C@H](CCCNC(=N)N)NC(=O)[C@H](CC(=O)O)NC(=O)[C@@H]2CCCN2C(=O)CN(C)C(=O)[C@H](Cc2ccc(-c3ccccc3)cc2)NC(=O)[C@H](Cc2ccc(-c3ccccc3)cc2)NC(=O)[C@H](Cc2ccccc2)NC(=O)CSC[C@@H](C(=O)NCC(N)=O)NC(=O)[C@H](CC(C)C)NC(=O)[C@H](CCCNC(=N)N)NC(=O)[C@H](C(C)C)NC(=O)[C@@H]2CCCN2C1=O [Example 33] ({CH2CO}-F[Bip][Bip][Sar]PDR[Hpra]PVRLCG-NH2; thioether N-13)
